Where a SMILES comes first, the peptide text is derived from it. Bridges are numbered along the chain shown (N, C = ends).
Tests used:
Type in all cases: biochemical
IDE [1] = biological target: T1, IDE (Homo sapiens, UniProt P14735); assay: IDE protease activity assay with FRET1 substrate; settings: Ki converted from IC50 with the Cheng-Prusoff equation
T1 construct: made in house; host or cells: bacteria
T1 sequence (P14735 1-1019): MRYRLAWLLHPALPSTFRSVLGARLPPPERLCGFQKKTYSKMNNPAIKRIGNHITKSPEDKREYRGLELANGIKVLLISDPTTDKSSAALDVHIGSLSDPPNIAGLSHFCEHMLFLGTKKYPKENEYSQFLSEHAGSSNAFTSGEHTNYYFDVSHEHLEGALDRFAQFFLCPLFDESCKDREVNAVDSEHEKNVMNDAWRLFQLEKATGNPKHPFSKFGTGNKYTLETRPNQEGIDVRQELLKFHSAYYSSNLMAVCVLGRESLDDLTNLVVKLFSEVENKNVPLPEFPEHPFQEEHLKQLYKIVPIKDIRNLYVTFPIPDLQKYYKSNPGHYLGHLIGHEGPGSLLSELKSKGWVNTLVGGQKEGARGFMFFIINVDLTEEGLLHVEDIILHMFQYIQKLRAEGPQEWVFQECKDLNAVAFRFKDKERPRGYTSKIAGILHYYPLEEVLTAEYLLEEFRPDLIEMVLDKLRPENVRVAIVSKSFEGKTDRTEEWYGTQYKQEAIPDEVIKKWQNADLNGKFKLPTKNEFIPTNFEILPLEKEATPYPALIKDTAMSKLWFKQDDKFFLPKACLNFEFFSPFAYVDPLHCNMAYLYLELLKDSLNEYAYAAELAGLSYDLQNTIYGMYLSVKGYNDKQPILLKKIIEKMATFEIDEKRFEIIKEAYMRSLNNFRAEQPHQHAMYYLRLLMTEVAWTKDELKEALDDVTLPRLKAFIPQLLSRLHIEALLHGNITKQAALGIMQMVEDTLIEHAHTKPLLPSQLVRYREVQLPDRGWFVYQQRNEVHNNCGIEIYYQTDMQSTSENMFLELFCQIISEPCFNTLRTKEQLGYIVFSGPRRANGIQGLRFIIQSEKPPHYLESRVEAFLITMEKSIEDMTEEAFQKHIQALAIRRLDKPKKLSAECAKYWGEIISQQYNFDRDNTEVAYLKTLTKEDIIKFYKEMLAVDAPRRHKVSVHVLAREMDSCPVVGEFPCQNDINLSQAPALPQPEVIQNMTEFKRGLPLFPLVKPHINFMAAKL

IDE [2] = biological target: T1, IDE; assay: IDE activity assay, FAβB (amyloid β-protein) degradation by fluorescence polarization; settings: P12-3A 100 μM
Method: (§1) Degradation Assays—IDE activity was quantified by monitoring the degradation of (7-methoxycoumarin-4-yl)acetic acid-[…](2,4-dinitrophenyl) (FRET1, 5 μM) (49,55), fluoresceinated and biotinylated amyloid β-protein (FAβB; 500 nM) or recombinant human insulin (50 nM) in PBS supplemented with 0.05% BSA. FRET1 degradation was measured by changes in fluorescence (λex=340 nm, λem=420 nm); FAβB degradation was monitored by fluorescence polarization (λex=488 nm, λem=525 nm), as described (56); and insulin degradation was quantified by ELISA. In vitro activity assays incorporated recombinant human IDE (1 nM) purified from bacteria (35). For quantitation of insulin degradation in primary murine skin fibroblasts, cells (1×10^5/well) were plated in 96-well plates and maintained in DMEM supplemented with 10% fetal bovine serum (FBS), 2 mM glutamine, penicillin and streptomycin. After addition of insulin (10 nM or 100 nM), samples of conditioned medium were removed daily and quickly frozen, then insulin levels were quantified in parallel by ELISA according to manufacturer's recommendations (Crystal Chem, Downers Grove, Ill., USA). […]

IDE [3] = biological target: T1, IDE; assay: Vulnerability of peptides to degradation by IDE: potency after 0 or 4 h pre-incubation with IDE, FRET1 assay; settings: 4-h incubation with IDE
From the text: FIG. 2. Vulnerability of peptides to degradation by IDE assessed by activity assays.
Because IDE is a peptidase, it was critical to determine whether the peptides were degraded by IDE over time. […] Because this peptide is capable of forming a disulfide bond between its two cysteines, but was not deliberately cyclized prior to testing, we suspect that the peptide (and related variants) may have cyclized over time, contributing to its stability. […]
as §1, with “In vitro activity assays incorporated recombinant human IDE (1 nM) purified from bacteria (35).” left out, “streptomycin.” for “streptomycin. After addition of insulin (10 nM or 100 nM), samples of conditioned medium were removed daily and quickly frozen, then insulin levels were quantified in parallel by ELISA according to manufacturer's recommendations (Crystal Chem, Downers Grove, Ill., USA).”

Ki (IDE [1]): 10 ± 0.4 µM
inhibition of IDE in selectivity panel (IDE [2]): significant inhibition
increase in potency at the 4-h time point relative to t=0 (IDE [3]): 1 fold
Compound: CC(C)C[C@H](NC(=O)[C@H](CO)NC(=O)[C@@H](N)CCC(N)=O)C(=O)N1CCC[C@H]1C(=O)N[C@@H](Cc1c[nH]c2ccccc12)C(=O)N[C@H]1CSSC[C@@H](C(=O)N[C@H](C(=O)N[C@H](C(N)=O)[C@@H](C)O)C(C)C)NC(=O)[C@H](Cc2c[nH]cn2)NC(=O)[C@@H]2CCCN2C(=O)[C@H](Cc2ccc(O)cc2)NC1=O [Peptide P12-3A] (H-QSLPWCYPHCVT-NH2; disulfide 6-10 (inferred))
